Patent publication US8106055B2, “Substituted amide compounds” (Gruenenthal GmbH, priority 2007, dated 2012)

How the values were obtained:
human μ opiate receptor = molecular target: T1, human μ opiate receptor (Homo sapiens, UniProt P35372); assay: Affinity for the human μ opiate receptor ([3H]-naloxone displacement, CHO-K1 receptor membrane preparation, SPA); type: binding; conditions: test concentration of 1 μM
T1 construct: purchased PerkinElmer Life Sciences, Zaventem, Belgium RB-HOM; host or cells: CHO-K1 cells (membrane preparation)
Outline: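 At 1 μmol/l, compounds were scored for % displacement of 1 nmol/l [3H]-naloxone from CHO-K1-expressed human μ opiate receptor in a homogeneous SPA format (90 min, room temperature).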

[1] = molecular target: T2, bradykinin 1 receptor (B1R) of the rat (Rattus norvegicus, UniProt P97583); assay: Functional investigation on the rat bradykinin 1 receptor (B1R), Ca2+ FLIPR assay in CHO K1 rB1R cells; type: cell-based; conditions: B1R antagonism rat; test substance 10 μM; Ca2+ FLIPR, CHO K1 rB1R cells
T2 construct: expressed in transfected cells; host or cells: CHO K1 cells
T2 sequence (P97583 1-337): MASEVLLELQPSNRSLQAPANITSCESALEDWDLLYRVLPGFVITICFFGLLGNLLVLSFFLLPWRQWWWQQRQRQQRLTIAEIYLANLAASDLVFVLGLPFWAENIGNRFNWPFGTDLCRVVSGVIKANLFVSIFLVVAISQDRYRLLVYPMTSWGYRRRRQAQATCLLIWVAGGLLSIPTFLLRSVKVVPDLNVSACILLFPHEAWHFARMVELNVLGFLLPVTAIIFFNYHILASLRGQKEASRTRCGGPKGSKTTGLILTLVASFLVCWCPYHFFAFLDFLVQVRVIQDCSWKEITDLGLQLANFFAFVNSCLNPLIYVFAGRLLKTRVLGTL
Outline: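 Peak Ca2+-dependent fluorescence in B1R-transfected CHO K1 cells measures antagonism of an EC80 agonist challenge given 10-20 min after compound. Agonist is Lys-Des-Arg9-bradykinin for human, Des-Arg9-bradykinin for rat receptor.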

T1 sequence (P35372 whole entry): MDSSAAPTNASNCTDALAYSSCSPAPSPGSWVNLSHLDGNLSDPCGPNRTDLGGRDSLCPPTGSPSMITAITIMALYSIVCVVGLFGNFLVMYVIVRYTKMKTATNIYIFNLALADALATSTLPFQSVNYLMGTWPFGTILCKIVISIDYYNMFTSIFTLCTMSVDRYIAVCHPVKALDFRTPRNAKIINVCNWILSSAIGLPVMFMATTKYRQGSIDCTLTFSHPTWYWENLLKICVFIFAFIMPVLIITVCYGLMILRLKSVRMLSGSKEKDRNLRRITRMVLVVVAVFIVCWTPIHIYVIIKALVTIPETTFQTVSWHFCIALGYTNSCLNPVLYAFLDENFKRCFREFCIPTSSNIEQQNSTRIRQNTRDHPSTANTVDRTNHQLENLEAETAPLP

With COc1ccc(S(=O)(=O)N2CCCCC2COCC(=O)NCCC2CCC(C(c3ccc(F)cc3)N(C)C)CC2)c(OC)c1 (centres unmarked) [Example 500] the “μ (binding on the μ opioid receptor, % inhibition)” value (human μ opiate receptor) was 43% and the “B1R Ant. r [10 μM] % Inhibition” value [1] was 23%.
Cc1cc(C)c(S(=O)(=O)N2CCC(OCC(=O)NCCC3CCC(C(c4ccc(F)cc4)N(C)C)CC3)C2)c(C)c1 (centres unmarked) [Example 501] was tested, and the “μ (binding on the μ opioid receptor, % inhibition)” value (human μ opiate receptor) was 45% and the “B1R Ant. r [10 μM] % Inhibition” value [1] was 38%.
With CN(C)C(c1ccc(F)cc1)C1CCC(NC(=O)COCCN2CCN(S(=O)(=O)c3ccccc3)CC2)CC1 (centres unmarked) [Example 502] the “μ (binding on the μ opioid receptor, % inhibition)” value (human μ opiate receptor) was 33% and the “B1R Ant. r [10 μM] % Inhibition” value [1] was 21%.
With COc1cc(C)c(S(=O)(=O)N2CCC(OCC(=O)NCC3CCC(C(CCc4ccccc4)N(C)C)CC3)C2)c(C)c1C (centres unmarked) [Example 503] the “μ (binding on the μ opioid receptor, % inhibition)” value (human μ opiate receptor) was 37% and the “B1R Ant. r [10 μM] % Inhibition” value [1] was 37%.
COc1cc(C)c(S(=O)(=O)N(CCOCC(=O)NC2CCC(C(c3ccc(F)cc3)N(C)C)CC2)Cc2ccccc2)c(C)c1 (centres unmarked) [Example 504] was tested, and the “μ (binding on the μ opioid receptor, % inhibition)” value (human μ opiate receptor) was 43% and the “B1R Ant. r [10 μM] % Inhibition” value [1] was 48%.
With Cc1cc(C)c(S(=O)(=O)N2CCC(OCC(=O)NCCC3CCC(C(c4ccc(Cl)cc4)N(C)C)CC3)C2)c(C)c1 (centres unmarked) [Example 506] the “μ (binding on the μ opioid receptor, % inhibition)” value (human μ opiate receptor) was 42% and the “B1R Ant. r [10 μM] % Inhibition” value [1] was 23%.
In the case of CN(C)C(c1ccccc1)C1CCC(CNC(=O)COCCC2CCN(S(=O)(=O)c3ccccc3)CC2)CC1 (centres unmarked) [Example 507], the “μ (binding on the μ opioid receptor, % inhibition)” value (human μ opiate receptor) is reported as 32% and the “B1R Ant. r [10 μM] % Inhibition” value [1] is reported as 3%.
In the case of COc1ccc(S(=O)(=O)N(C)CCOCC(=O)NCC2CCC(C(c3ccc(F)cc3)N(C)C)CC2)cc1 (centres unmarked) [Example 508], the “μ (binding on the μ opioid receptor, % inhibition)” value (human μ opiate receptor) is reported as 31% and the “B1R Ant. r [10 μM] % Inhibition” value [1] is reported as 42%.
With COc1cc(C)c(S(=O)(=O)N2CCC(OCC(=O)NCCC3CCC(C(c4ccc(F)cc4)N(C)C)CC3)C2)c(C)c1 (centres unmarked) [Example 509] the “μ (binding on the μ opioid receptor, % inhibition)” value (human μ opiate receptor) was 43% and the “B1R Ant. r [10 μM] % Inhibition” value [1] was 94%.
For COc1cc(C)c(S(=O)(=O)N2CCC(CCOCC(=O)NCCC3CCC(C(c4ccc(F)cc4)N(C)C)CC3)CC2)c(C)c1C (centres unmarked) [Example 510], the “μ (binding on the μ opioid receptor, % inhibition)” value (human μ opiate receptor) was 33% and the “B1R Ant. r [10 μM] % Inhibition” value [1] was 27%.
In the case of COc1ccc(S(=O)(=O)N2CCCC2COCC(=O)NCC2CCC(C(c3ccc(F)cc3)N(C)C)CC2)cc1 (centres unmarked) [Example 511], the “μ (binding on the μ opioid receptor, % inhibition)” value (human μ opiate receptor) is reported as 39% and the “B1R Ant. r [10 μM] % Inhibition” value [1] is reported as 17%.
With COc1ccc(S(=O)(=O)N2CCC(OCC(=O)NC3CCC(C(c4ccc(F)cc4)N(C)C)CC3)C2)cc1OC (centres unmarked) [Example 512] the “μ (binding on the μ opioid receptor, % inhibition)” value (human μ opiate receptor) was 42% and the “B1R Ant. r [10 μM] % Inhibition” value [1] was 38%.
With CN(C)C(CCc1ccccc1)C1CCC(CNC(=O)COCCN(C)S(=O)(=O)c2ccc(Cl)cc2Cl)CC1 (centres unmarked) [Example 513] the “μ (binding on the μ opioid receptor, % inhibition)” value (human μ opiate receptor) was 38% and the “B1R Ant. r [10 μM] % Inhibition” value [1] was 40%.
For COc1ccc(S(=O)(=O)N(C)CCOCC(=O)NCC2CCC(C(c3ccc(F)cc3)N(C)C)CC2)cc1OC (centres unmarked) [Example 514], the “μ (binding on the μ opioid receptor, % inhibition)” value (human μ opiate receptor) was 27% and the “B1R Ant. r [10 μM] % Inhibition” value [1] was 22%.
With CN(C)C(CCc1ccccc1)C1CCC(CNC(=O)COCCN(C)S(=O)(=O)c2c(Cl)cc(Cl)cc2Cl)CC1 (centres unmarked) [Example 515] the “μ (binding on the μ opioid receptor, % inhibition)” value (human μ opiate receptor) was 42% and the “B1R Ant. r [10 μM] % Inhibition” value [1] was 54%.
For CN(C)C(c1ccc(F)cc1)C1CCC(CNC(=O)COC2CCN(S(=O)(=O)c3ccc(Cl)cc3)C2)CC1 (centres unmarked) [Example 517], the “μ (binding on the μ opioid receptor, % inhibition)” value (human μ opiate receptor) was 40% and the “B1R Ant. r [10 μM] % Inhibition” value [1] was 38%.
With CN(C)C(c1ccc(F)cc1)C1CCC(CCNC(=O)COC2CCN(S(=O)(=O)c3ccc(F)cc3)C2)CC1 (centres unmarked) [Example 518] the “μ (binding on the μ opioid receptor, % inhibition)” value (human μ opiate receptor) was 35% and the “B1R Ant. r [10 μM] % Inhibition” value [1] was 26%.
With COc1ccc(S(=O)(=O)N(C)CCOCC(=O)NCCC2CCC(C(c3ccc(F)cc3)N(C)C)CC2)cc1 (centres unmarked) [Example 519] the “μ (binding on the μ opioid receptor, % inhibition)” value (human μ opiate receptor) was 39% and the “B1R Ant. r [10 μM] % Inhibition” value [1] was 44%.
CN(C)C(c1ccc(F)cc1)C1CCC(CCNC(=O)COC2CCCN(S(=O)(=O)c3ccccc3)C2)CC1 (centres unmarked) [Example 520] was tested, and the “μ (binding on the μ opioid receptor, % inhibition)” value (human μ opiate receptor) was 31% and the “B1R Ant. r [10 μM] % Inhibition” value [1] was 24%.
